Biological target: Egl nine homolog 1 (Homo sapiens, UniProt Q9GZT9)
Experiment: Inhibition of human PHD2 assessed as hydroxylation of Pro564 in human HIF-1alpha by TR-FRET assay

Chain of Egl nine homolog 1 (Q9GZT9 whole entry): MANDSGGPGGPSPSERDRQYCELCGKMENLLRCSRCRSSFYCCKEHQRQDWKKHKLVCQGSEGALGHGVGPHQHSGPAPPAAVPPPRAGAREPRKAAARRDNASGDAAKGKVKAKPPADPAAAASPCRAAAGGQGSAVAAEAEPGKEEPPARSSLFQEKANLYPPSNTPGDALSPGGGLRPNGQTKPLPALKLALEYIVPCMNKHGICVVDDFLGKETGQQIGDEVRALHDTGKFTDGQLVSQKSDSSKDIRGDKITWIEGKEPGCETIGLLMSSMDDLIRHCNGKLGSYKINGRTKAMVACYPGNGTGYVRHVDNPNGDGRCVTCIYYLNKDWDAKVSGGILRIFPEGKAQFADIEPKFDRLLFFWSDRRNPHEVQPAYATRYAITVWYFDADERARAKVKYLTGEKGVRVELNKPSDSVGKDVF

Row | Structure (SMILES) | IC50 [µM]
1 | O=C(O)Cc1cs/c(=N/C(=O)CCc2ccccc2)n1O | > 40
2 | CCOC(=O)Cc1csc(NC(=O)CS(=O)(=O)c2ccccc2)n1 | > 40
3 | CC(C)(C(=O)O)c1cs/c(=N/C(=O)CS(=O)(=O)c2ccccc2)n1O | > 40

The remaining lines, values ahead:

Row | IC50 [µM] | Structure (SMILES)
4 | > 40 | O=C(O)Cc1csc(NC(=O)CS(=O)(=O)c2ccccc2)n1
5 | > 40 | CCOC(=O)Cc1cs/c(=N/C(=O)CS(=O)(=O)c2ccccc2)n1O
